Data as given in patent publication US6613553B1, “Enoyl reductases and methods of use thereof” (priority 2000, dated 2003).
In brackets after ≈: the same amount, converted by molar mass. Entries after “also recorded” stand apart in the source; their conditions may differ. Like-named read-outs stand apart in the source and are kept apart here.

Experiments:
FabK = FabK (Streptococcus pneumoniae, UniProt Q9FBC5); assay type: biochemical
Procedure: A coupled enzyme system was employed to assay FabK by combining the purified E. coli proteins required to reconstitute a cycle of fatty acid synthesis with the exception of the FabI enoyl-ACP reductase. Reaction mixtures were first incubated to generate trans-2-butenoyl-ACP and then the indicated amounts of FabK were added as described in the Example below. Products were separated by conformationally sensitive gel electrophoresis and the bands visualized and quantitated using a Phosphorimager (FIG. 2C).
Enzymatic Assays: A reaction mixture containing 100 μM ACP, 1 mM β-mercaptoethanol, 100 μM acetyl-CoA, 50 μM [2-^14C]malonyl-CoA (56 mCi/mmol), 200 μM NADPH, 200 μM NADH, and 12.5 μg/ml of each FabD, FabH, FabG, FabA and FabZ in 0.1 M sodium phosphate pH 7.0 was incubated at 37° C. for 30 min to generate the trans-2-enoyl-ACP substrate before being aliquoted into individual reaction tubes to which FabK was added to the final amount as indicated for the Figures, above. The final reaction volume was 40 μL. Reactions were then incubated for 30 min at 37° C. and were stopped by placing into an ice slurry. Gel loading buffer was added, and the entire sample was loaded onto a 13% polyacrylamide gel containing 0.5 M urea [Heath and Rock, J. Biol. Chem., 271:1833 (1996)]. […]

[1] = system: E. coli W3110/pBluescript; assay: triclosan MIC on LB agar plates; assay type: cell-based; settings: Escherichia coli; E. coli W3110/pBluescript (empty vector); no growth in at least three experiments
[2] = system: E. coli RJR108 (fabI[G93V]); assay: triclosan MIC on LB agar plates; assay type: cell-based; settings: Escherichia coli
E. coli W3110/pfabI = assay: triclosan MIC on LB agar plates; assay type: cell-based; settings: Escherichia coli; E. coli W3110/pfabI (His-tag E. coli FabI, multi-copy plasmid)
E. coli W3110/pfabK = assay: triclosan MIC on LB agar plates; assay type: cell-based, Escherichia coli; settings: for MIC: Escherichia coli
Procedure: FabI is the only enoyl reductase in E. coli and strain RJH13 harbors a fabI(Ts) allele and fails to grow at 42° C. [Heath et al., J. Biol. Chem., 273:30316 (1998)]. […] The pfabK plasmid was then introduced into the wild-type E. coli strain W3110. […] J. Infect. Control, 24:209 (1996)].

S. pneumoniae R6 = assay: triclosan MIC on brain heart infusion plates; assay type: cell-based; settings: Streptococcus pneumoniae
E. coli expressing FabL = settings: FabL cloned from B. subtilis (ygaA)
Excerpt: However, such limited structural information alone cannot allow the identification since the overall identity of SDRs are low and the family size is large.

B. subtilis = settings: cited from earlier work
P. aeruginosa = settings: contains both FabI and FabK; cited from earlier work
[3] = biological target: FabI protein from P. aeruginosa (Pseudomonas aeruginosa, UniProt Q9ZFE4); settings: cited from earlier work
Sequence of FabI protein from P. aeruginosa (Q9ZFE4 whole entry): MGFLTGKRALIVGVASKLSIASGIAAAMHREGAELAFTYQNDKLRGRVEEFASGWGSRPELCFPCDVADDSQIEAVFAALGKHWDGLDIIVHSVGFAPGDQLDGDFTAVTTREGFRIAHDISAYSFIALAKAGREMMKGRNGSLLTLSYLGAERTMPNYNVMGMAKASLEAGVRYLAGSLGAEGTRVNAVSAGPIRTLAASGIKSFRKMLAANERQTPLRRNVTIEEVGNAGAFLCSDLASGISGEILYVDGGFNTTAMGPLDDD

FabI[G93V] mutant = biological target: T1, FabI[G93V] mutant (Escherichia coli, UniProt P0AEK4, G93V); settings: fails to form high-affinity FabI-NAD+-triclosan ternary complex; cited from earlier work
T1 sequence (P0AEK4 1-262 G93V): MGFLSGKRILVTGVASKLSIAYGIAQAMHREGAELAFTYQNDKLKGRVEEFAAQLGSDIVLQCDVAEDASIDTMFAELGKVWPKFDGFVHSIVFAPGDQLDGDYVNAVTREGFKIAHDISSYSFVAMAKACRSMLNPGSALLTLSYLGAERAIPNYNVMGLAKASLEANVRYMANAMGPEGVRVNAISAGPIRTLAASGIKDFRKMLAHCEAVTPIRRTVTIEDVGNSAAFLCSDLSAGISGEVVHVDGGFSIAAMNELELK

Sequence of FabK (Q9FBC5 entry or part of it): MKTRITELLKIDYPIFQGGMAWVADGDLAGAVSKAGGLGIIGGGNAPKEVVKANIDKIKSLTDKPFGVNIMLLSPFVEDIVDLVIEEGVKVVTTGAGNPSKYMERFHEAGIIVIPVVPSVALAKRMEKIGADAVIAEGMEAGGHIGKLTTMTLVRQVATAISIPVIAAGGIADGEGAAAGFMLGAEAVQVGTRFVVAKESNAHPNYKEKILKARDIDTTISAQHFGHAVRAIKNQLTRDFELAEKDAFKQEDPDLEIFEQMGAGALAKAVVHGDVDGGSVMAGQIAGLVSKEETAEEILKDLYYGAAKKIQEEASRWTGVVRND

Oc1cc(Cl)ccc1Oc1ccc(Cl)cc1Cl [triclosan, 2,4,4′-Trichloro-2′-hydroxydiphenyl ether]
inhibition of FabK activity in the in vitro assay (FabK): did not inhibit | MIC [1]: 0.25 µg/mL (≈ 0.863 µM) | MIC [2]: 16 µg/mL (≈ 55.3 µM) | MIC (E. coli W3110/pfabI): 2 µg/mL (≈ 6.91 µM) | triclosan resistance of E. coli expressing fabK (E. coli W3110/pfabK; E. coli with fabK expression): completely resistant; also recorded: complete triclosan resistance | MIC (E. coli W3110/pfabK; E. coli W3110/pfabK (His-tag S. pneumoniae FabK), read-out: MIC): > 2000 µg/mL | MIC (E. coli W3110/pfabK; pfabK plasmid in strain W3110, read-out: minimum inhibitory concentration (MIC)): > 2000 µg/mL | MIC (S. pneumoniae R6; R6, S. pneumoniae): ~2 µg/mL (≈ 6.91 µM) | MIC (S. pneumoniae R6; R6, S. pneumoniae R6, brain heart infusion plates): 2 µg/mL (≈ 6.91 µM) | triclosan resistance of E. coli expressing FabL (E. coli expressing FabL): complete triclosan resistance | MIC (B. subtilis): about 2 μg/ml | triclosan inhibition of P. aeruginosa (P. aeruginosa): completely refractory | susceptibility of P. aeruginosa FabI to triclosan in vitro [3]: highly susceptible | inhibition of FabI[G93V] mutant by triclosan (FabI[G93V] mutant): still inhibited
